In patent US11028095B2, “Spiro-lactam and bis-spiro-lactam NMDA receptor modulators and uses thereof” (Aptinyx Inc., priority 2016, dated 2021):
Read-outs that look alike come from different tables or passages of the source.

Tests used:
[1] = biological target: T1, NMDAR2B expressing HEK cell membranes (Homo sapiens, UniProt Q13224); test: NMDAR agonist assay, [3H]MK-801 binding, NMDAR2B; assay type: biochemical; settings: 50 μM glutamate
T1 construct: expressed in transfected cells; host or cells: HEK cells (membrane extract)
Method: (§1) (nonequilibrium conditions).
(§2) The baseline value was determined from the best fit curve of the DPM values modeled using the GraphPad program and the log(agonist) vs. response(three parameters) algorithm was then subtracted from all points in the dataset.

[2] = biological target: T2, NMDAR2B expressing HEK cell membranes (Homo sapiens, UniProt Q05586+Q13224); test: NMDAR agonist assay, [3H]MK-801 binding, NMDAR2B; assay type: biochemical; settings: [3H]MK-801 binding
T2 construct: expressed in transfected cells; host or cells: HEK cells (membrane extract)
Method: as §1, §2

[3] = biological target: T3, NMDAR2C expressing HEK cell membranes (Homo sapiens, UniProt Q05586+Q14957); test: NMDAR agonist assay, [3H]MK-801 binding, NMDAR2C; assay type: biochemical; settings: for EC50: [3H]MK-801 binding
T3 construct: expressed in transfected cells; host or cells: HEK cells (membrane extract)
Method: as §1, §2

[4] = system: positive (hedonic) 50-kHz ultrasonic vocalizations (USVs); test: Positive Emotional Learning (PEL) test; assay type: in vivo; settings: rat, PO, one hour after administration
Method: Experiments were conducted as described in Burgdorf et al., “The effect of selective breeding for differential rates of 50-kHz ultrasonic vocalizations on emotional behavior in rats,” Devel. […] Rat 50-kHz ultrasonic vocalization (hedonic USVs) is a validated model for the study of positive affective state and is best elicited by rough-and-tumble play.
The PEL assay measures the acquisition of positive (hedonic) 50-kHz ultrasonic vocalizations (USVs) to a social stimulus, heterospecific rough and tumble play stimulation. Heterospecific rough-and-tumble play stimulation was administered by the experimenter's right hand. One hour after administration of test compound or vehicle negative control (0.5% sodium carboxymethyl cellulose in 0.9% sterile saline vehicle), animals received 3 min of heterospecific rough-and-tumble play that consisted of alternating 15 sec blocks of heterospecific play and 15 sec of no-stimulation. […] Frequency modulated 50-kHz USVs that occurred during each of the no-stimulation periods were quantified to measure PEL. Animals were not habituated to play stimulation before testing. Positive emotional learning was measured during the conditioned stimulus (CS) trials preceding the tickle unconditioned stimulus (UCS) trials. Animals received 15 second trials consisting of 6 CS and 6 UCS trials each (3 min total).

[5] = Oral pharmacokinetics (plasma, brain, CSF); assay type: in vivo; settings: Sprague Dawley rats, per os, 10 mg/kg; for AUC(0-t) / bioavailability / Tmax / Cmax: rat, plasma, po; for Tmax: normal saline, read-out: Tmax; for Cmax: read-out: Cmax
Method: In another experiment, Sprague Dawley rats were dosed per os using a normal saline formulation containing 10 mg/kg of the compounds identified in the table below. Plasma, brain, and CSF samples were analyzed at various time points over a 24 hour period. The table below summarizes the results of the oral pharmacokinetics.

[6] = Plasma stability (Rat); assay type: in vitro ADME
Method: (§3) Plasma stability of disclosed compounds was investigated. The following table indicates the percent of compound remaining after 60 minutes.

[7] = biological target: T4, NMDAR2D expressing HEK cell membranes (Homo sapiens, UniProt O15399+Q05586); test: NMDAR agonist assay, [3H]MK-801 binding, NMDAR2D; assay type: biochemical; settings: for EC50: [3H]MK-801 binding; for Emax: read-out: NMDAR2D: % maximal [3H]MK-801 binding relative to 1 mM glycine
T4 construct: expressed in transfected cells; host or cells: HEK cells (membrane extract)
Method: as §1, §2

[8] = Plasma stability (Human); assay type: in vitro ADME
Method: as §3

[9] = Microsomal stability (Human); assay type: in vitro ADME; settings: human microsomes
Method: (§4) Microsomal stability of disclosed compounds was investigated. The following table indicates the percent of compound remaining after 60 minutes.

[10] = Microsomal stability (Rat); assay type: in vitro ADME; settings: rat microsomes
Method: as §4

[11] = biological target: T5, NMDAR2A expressing HEK cell membranes (Homo sapiens, UniProt Q12879); test: NMDAR agonist assay, [3H]MK-801 binding, NMDAR2A; assay type: biochemical; settings: 50 μM glutamate
T5 construct: expressed in transfected cells; host or cells: HEK cells (membrane extract)
Method: as §1, §2

[12] = biological target: T6, NMDAR2A expressing HEK cell membranes (Homo sapiens, UniProt Q05586+Q12879); test: NMDAR agonist assay, [3H]MK-801 binding, NMDAR2A; assay type: biochemical; settings: NMDAR2A: log EC50, 50 μM glutamate; [3H]MK-801 binding
T6 construct: expressed in transfected cells; host or cells: HEK cells (membrane extract)
Method: as §1, §2

[13] = IV pharmacokinetics; assay type: in vivo; settings: rat, in vivo, Sprague Dawley rats, 2 mg/kg, normal saline; for C0: read-out: C0; for Vd: read-out: Vss
Method: Sprague Dawley rats were dosed intravenously using a normal saline formulation containing 2 mg/kg of the compounds identified in the below table. The table below summarizes the results of the IV pharmacokinetics.

[14] = biological target: T7, NMDAR2D expressing HEK cell membranes (Homo sapiens, UniProt O15399); test: NMDAR agonist assay, [3H]MK-801 binding, NMDAR2D; assay type: biochemical; settings: 50 μM glutamate; relative to 1 mM glycine
T7 construct: expressed in transfected cells; host or cells: HEK cells (membrane extract)
Method: as §1, §2

[15] = system: Sciatic nerve chronic constriction nerve injury; test: Bennett nerve injury assay (mechanical analgesia, paw withdrawal threshold); assay type: in vivo, Sprague Dawley rats; settings: 150 mg/kg PO
Method: The Bennett model of mechanical analgesia is used to assess the analgesic effects of compounds as measured by paw withdrawal threshold. Bennett G J, Xie Y K, “A peripheral mononeuropathy in rat that produces disorders of pain sensation like those seen in man,” Pain 33:87-107, 1988. […] Vehicle animals receive the surgery and then receive vehicle rather than test compound. Animals were tested 1 hr, 24 h and 1 wk post-test compound or vehicle administration.
Male 2-3 month old Sprague Dawley rats were used. Harlan was the supplier for all studies. Rats were housed in Lucite cages with aspen wood chip bedding, maintained on a 12:12 light:dark cycle (lights on at 5 AM), and given ad libitum access to Purina lab chow (USA) and tap water throughout the study.
Rats were anesthetized using inhaled isoflurane (2.5%). Sciatic nerve chronic constriction nerve injury surgery was performed as previously described (Bennett and Xie, 1988). An incision (˜1.5 cm in length) was made with a scalpel blade dorsally through skin on the right hind limb, parallel and posterior to femur. Using a small pointed hemostat, the biceps femoris and gluteus superficialis muscles were separated. Using curved blunt forceps, the common sciatic nerve was isolated and exposed. For the mechanical analgesia studies, the whole sciatic nerve was ligated. Using hemostats/forceps and chromic gut (5-0), the nerve was loosely ligated with a square knot; 3 ligatures, 1 mm apart were placed on the nerve. […] Testing occurred approximately 2 weeks post-surgery.
During testing, rats were acclimated to the surface of a suspended wire mesh grid (1 cm×1 cm, with the wire being 0.3 cm in diameter) for 15-20 min Starting from the smallest, each Von Frey filament was pressed perpendicularly to the plantar surface of the affected (ipsilateral) hind paw until slightly bent and then held for 6 second. If an obvious hind paw withdrawal or a flinching behavior immediately after the withdrawal of the filament was not observed, the next larger filament was used in the same manner. In case of a response, a lower filament was used. This was repeated until six responses were collected.
For all studies, animals were baselined prior to study start to test for allodynia (defined as a paw withdrawal threshold under 5). A subset of animals was tested with gabapentin (150 mg/kg, PO) to ensure at least 50% analgesia. Once it was confirmed animals were ready for study initiation, animals were balanced across groups. All study investigators were blind to treatment conditions. Animals were dosed with 0.1, 1 or 10 mg/kg of test compound via oral gavage (PO), control sets of animals were dosed with gabapentin (150 mg/kg, PO) or vehicle (0.5% Na-CMC in 0.9% sterile saline, PO). Testing occurred 1 h post-dosing with animals retested 24 hrs and 1 week post-dosing. The percent analgesia calculations for each animal were made using the following equation: % analgesia=[(log(x)−y)/((log (z)−y)]*100, where x=the paw withdrawal threshold for the drug-treated animal in grams, y=the average of the log(x) values for the vehicle treated group, and z=the paw withdrawal threshold for naïve animals in grams (historical value of 15 used). The results for Compound AD, where the percentage of analgesia is measured at 1 hour, 24 hours, and 1 week after compound administration are as follows: for 0.1 mg/kg dose: 37.8% at 1 h, 29.7% at 24 h, and 63.1% at 1 wk; for 1 mg/kg dose: 48.8% at 1 h, 20.6% at 24 h, and 19.8% at 1 wk; and for 10 mg/kg dose: 70.3% at 1 h, 38.8% at 24 h, and 11.3% at 1 wk.

[16] = 50 μM glutamate, relative to 1 mM glycine, read-out: NMDAR2C A: % maximal [3H]MK-801 binding relative to 1 mM glycine

T3 sequence (Q14957 20-1233, other chains not shown): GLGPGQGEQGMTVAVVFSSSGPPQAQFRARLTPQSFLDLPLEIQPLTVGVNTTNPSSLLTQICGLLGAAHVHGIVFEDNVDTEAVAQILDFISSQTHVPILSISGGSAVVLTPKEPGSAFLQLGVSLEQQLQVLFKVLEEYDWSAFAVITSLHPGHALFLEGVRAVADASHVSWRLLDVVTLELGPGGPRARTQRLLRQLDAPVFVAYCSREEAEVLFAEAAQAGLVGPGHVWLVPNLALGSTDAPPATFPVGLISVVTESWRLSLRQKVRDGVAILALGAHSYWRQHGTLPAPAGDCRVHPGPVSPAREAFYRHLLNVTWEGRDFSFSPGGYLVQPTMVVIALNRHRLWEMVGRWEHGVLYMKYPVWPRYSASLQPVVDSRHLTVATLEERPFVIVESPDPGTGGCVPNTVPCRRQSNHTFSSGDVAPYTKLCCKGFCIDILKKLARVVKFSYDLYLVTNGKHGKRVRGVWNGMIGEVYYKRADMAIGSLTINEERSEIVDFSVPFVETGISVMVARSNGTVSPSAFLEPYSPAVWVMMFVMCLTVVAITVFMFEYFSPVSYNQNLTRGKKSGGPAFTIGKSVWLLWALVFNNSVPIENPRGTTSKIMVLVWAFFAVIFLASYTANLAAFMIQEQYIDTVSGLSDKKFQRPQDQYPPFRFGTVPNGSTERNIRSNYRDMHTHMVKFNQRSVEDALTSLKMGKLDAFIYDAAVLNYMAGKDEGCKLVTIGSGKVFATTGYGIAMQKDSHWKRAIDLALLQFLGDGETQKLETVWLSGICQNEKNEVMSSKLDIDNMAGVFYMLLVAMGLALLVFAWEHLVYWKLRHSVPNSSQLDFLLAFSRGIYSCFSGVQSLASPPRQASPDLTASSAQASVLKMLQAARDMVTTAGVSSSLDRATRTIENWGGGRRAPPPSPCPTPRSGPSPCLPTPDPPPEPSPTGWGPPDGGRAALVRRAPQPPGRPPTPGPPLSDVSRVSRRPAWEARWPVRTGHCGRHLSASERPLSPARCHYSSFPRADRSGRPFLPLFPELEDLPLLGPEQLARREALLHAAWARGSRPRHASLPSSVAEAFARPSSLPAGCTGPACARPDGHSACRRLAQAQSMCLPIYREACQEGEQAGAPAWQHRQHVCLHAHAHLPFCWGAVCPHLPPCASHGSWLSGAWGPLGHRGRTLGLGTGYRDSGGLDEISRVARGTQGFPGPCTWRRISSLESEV
T1 sequence (Q13224 27-1484, other chains not shown): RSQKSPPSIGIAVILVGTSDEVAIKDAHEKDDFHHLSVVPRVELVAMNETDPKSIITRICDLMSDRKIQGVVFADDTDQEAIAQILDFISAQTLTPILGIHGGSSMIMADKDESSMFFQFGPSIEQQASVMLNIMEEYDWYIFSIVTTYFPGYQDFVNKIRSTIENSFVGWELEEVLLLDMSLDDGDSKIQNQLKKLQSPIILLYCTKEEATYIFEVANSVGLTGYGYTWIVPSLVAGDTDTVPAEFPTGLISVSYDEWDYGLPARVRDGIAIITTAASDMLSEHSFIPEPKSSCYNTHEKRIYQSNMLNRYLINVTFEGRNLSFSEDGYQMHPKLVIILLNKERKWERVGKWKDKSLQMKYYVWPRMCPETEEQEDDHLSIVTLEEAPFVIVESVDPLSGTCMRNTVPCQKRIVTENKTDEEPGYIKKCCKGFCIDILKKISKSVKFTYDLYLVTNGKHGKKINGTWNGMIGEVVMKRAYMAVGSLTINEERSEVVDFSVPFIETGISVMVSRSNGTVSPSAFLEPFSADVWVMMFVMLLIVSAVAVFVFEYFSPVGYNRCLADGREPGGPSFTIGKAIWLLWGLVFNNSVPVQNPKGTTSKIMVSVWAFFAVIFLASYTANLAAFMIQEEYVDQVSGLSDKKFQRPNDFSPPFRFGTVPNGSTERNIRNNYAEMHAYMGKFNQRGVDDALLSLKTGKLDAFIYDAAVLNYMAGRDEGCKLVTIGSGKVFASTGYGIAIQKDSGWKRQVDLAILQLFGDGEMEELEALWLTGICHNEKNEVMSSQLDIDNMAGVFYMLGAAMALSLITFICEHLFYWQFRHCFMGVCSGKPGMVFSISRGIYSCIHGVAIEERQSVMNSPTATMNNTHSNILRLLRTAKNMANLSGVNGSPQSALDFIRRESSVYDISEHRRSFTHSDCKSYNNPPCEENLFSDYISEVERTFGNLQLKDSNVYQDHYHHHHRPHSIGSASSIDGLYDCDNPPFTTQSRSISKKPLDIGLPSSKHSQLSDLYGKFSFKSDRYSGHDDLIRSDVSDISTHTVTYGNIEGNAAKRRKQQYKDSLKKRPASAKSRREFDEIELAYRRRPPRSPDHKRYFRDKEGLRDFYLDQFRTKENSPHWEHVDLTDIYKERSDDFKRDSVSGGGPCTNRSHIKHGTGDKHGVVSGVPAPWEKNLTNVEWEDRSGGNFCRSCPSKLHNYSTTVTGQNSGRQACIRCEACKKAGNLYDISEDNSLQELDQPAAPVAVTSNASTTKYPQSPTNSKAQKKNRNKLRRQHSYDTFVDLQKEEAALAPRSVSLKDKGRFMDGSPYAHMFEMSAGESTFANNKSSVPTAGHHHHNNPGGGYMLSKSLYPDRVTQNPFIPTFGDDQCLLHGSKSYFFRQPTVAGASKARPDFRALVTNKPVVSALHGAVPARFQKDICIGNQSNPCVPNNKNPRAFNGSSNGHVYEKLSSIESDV
T5 sequence (Q12879 23-1464, other chains not shown): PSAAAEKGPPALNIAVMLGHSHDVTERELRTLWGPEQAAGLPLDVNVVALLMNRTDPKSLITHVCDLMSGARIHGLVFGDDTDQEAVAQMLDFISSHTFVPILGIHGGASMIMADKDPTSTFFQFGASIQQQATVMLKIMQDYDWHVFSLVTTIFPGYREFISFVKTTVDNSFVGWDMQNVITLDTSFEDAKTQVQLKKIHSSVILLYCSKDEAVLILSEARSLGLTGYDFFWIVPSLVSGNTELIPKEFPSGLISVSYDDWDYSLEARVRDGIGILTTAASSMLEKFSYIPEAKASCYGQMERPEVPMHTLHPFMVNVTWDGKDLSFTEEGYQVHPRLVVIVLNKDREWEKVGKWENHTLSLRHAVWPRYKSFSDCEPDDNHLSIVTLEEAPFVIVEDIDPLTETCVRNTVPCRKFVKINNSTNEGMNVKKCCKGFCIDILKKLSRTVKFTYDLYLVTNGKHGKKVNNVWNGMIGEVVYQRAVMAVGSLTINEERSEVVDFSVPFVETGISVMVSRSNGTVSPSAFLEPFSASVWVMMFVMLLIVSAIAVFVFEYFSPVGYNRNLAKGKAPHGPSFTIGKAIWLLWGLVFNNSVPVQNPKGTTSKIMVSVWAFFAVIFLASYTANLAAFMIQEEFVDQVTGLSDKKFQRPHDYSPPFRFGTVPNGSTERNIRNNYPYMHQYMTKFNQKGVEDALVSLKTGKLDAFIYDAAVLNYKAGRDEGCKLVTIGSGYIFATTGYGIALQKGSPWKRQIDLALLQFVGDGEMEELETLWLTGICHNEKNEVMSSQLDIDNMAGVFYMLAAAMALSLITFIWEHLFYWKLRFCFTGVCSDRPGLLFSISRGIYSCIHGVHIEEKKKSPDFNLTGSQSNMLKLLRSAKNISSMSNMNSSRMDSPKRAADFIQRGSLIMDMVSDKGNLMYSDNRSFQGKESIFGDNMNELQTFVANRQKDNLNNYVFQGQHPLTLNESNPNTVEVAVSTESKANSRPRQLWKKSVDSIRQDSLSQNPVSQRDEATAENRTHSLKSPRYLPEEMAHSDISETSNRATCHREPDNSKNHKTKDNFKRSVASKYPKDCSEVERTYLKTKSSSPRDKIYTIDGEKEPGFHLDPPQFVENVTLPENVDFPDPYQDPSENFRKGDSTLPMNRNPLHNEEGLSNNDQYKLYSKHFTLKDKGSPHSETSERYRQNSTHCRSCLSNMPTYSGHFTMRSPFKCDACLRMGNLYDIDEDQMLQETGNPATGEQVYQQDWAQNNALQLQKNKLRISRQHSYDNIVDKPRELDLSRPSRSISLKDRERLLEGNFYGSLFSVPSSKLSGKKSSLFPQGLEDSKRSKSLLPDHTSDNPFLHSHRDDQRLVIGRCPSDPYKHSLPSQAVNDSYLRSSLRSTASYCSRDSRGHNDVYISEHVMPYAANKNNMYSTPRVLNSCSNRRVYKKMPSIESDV

SMILES: O=C1NCC12CCC1(CNC1=O)N2 (single isomer, unassigned) [AJ, 2,5,8-triazadispiro[3.1.36.24]undecane-1,7-dione]
- NMDAR2B: % maximal [3H]MK-801 binding relative to 1 mM glycine [1]: + (<100%=+)
- EC50 ([2]; NMDAR2B: log EC50, 50 μM glutamate): < 1 nM
- EC50 ([3]; NMDAR2C: log EC50, 50 μM glutamate): < 1 nM
- Emax ([3]; read-out: NMDAR2C: % maximal [3H]MK-801 binding relative to 1 mM glycine): < 100%
- Max Effect (mean number of 50 kHz USVs per 15 seconds) ([4]; dose 0.1 mg/kg): ** (**: 11-16.9)
- CSF Cmax [5]: 71.9 ng/mL
- Brain Cmax [5]: 0 ng/mL
- AUC(0-t) [5]: 2060 ng·h/mL
- bioavailability [5]: 20%
- Tmax [5]: 0.5 h
- Cmax [5]: 1160 ng/mL
- Plasma (Rat): percent of compound remaining after 60 minutes [6]: 68%
- EC50 ([7]; NMDAR2D: log EC50, 50 μM glutamate): < 1 nM
- Emax [7]: < 100%
- Plasma (Human): percent of compound remaining after 60 minutes [8]: 90%
- Microsomal (Human): percent of compound remaining after 60 minutes [9]: 100%
- Microsomal (Rat): percent of compound remaining after 60 minutes [10]: 100%
- NMDAR2A: % maximal [3H]MK-801 binding relative to 1 mM glycine [11]: + (<100%=+)
- EC50 [12]: < 1 nM
- AUC(0-t) [13]: 2090 ng·h/mL
- clearance [13]: 15.4 mL/min/kg
- half-life [13]: 0.44 h
- C0 [13]: 4860 ng/mL
- Vd [13]: 0.47 L/kg

SMILES: O=C1NCC12CCC1(CNC1=O)N2Cc1ccccc1 (single isomer, unassigned) [AC-1, 5-benzyl-2,5,8-triazadispiro[3.1.36.24]undecane-1,7-dione]
- EC50 ([1]; [3H]MK-801 binding, read-out: NMDAR2B log EC50 (converted)): < 1 nM
- NMDAR2B: % maximal [3H]MK-801 binding relative to 1 mM glycine [1]: + (<100%=+)
- Emax [3, 16]: < 100%
- Max Effect (mean number of 50 kHz USVs per 15 seconds) ([4]; dose 0.001-1 mg/kg): * (*: 6-10.9)
- Plasma (Rat): percent of compound remaining after 60 minutes [6]: 100%
- NMDAR2D: % maximal [3H]MK-801 binding relative to 1 mM glycine [14]: + (<100%=+)
- Plasma (Human): percent of compound remaining after 60 minutes [8]: 100%
- Microsomal (Human): percent of compound remaining after 60 minutes [9]: 95%
- Microsomal (Rat): percent of compound remaining after 60 minutes [10]: 100%
- NMDAR2A: % maximal [3H]MK-801 binding relative to 1 mM glycine [11]: + (<100%=+)

SMILES: NCC1(CC(=O)O)CCCCC1 [gabapentin, reference compound]
- analgesia, control group of the study ([15]; 1 week post-administration): under 5%
- percentage of analgesia, example (typical) control value ([15]; 1 wk): 0%
- percentage of analgesia, example (typical) control value ([15]; 1 h): 72%
- analgesia, control group of the study ([15]; 1 h post-administration): at least 50%
- percentage of analgesia, example (typical) control value ([15]; 24 h): 16%
- analgesia, control group of the study ([15]; 24 h post-administration): under 5%

SMILES: CC(C)C(=O)N1C2(CCC13CNC3=O)CNC2=O (single isomer, unassigned) [AH, 5-isobutyryl-2,5,8-triazadispiro[3.1.36.24]undecane-1,7-dione]
- NMDAR2B: % maximal [3H]MK-801 binding relative to 1 mM glycine [1]: + (<100%=+)
- EC50 ([2]; 50 μM glutamate, read-out: NMDAR2B log EC50 (converted)): < 1 nM
- EC50 ([3]; 50 μM glutamate, read-out: NMDAR2C: log EC50 (converted)): < 1 nM
- Emax [3, 16]: < 100%
- Max Effect (mean number of 50 kHz USVs per 15 seconds) ([4]; dose 0.1 mg/kg): ** (**: 11-16.9)
- CSF Cmax [5]: 123 ng/mL
- Brain Cmax [5]: 45.8 ng/mL
- AUC(0-t) ([5]; Sprague Dawley): 2570 ng·h/mL
- bioavailability ([5]; Sprague Dawley): 17%
- Tmax ([5]; Sprague Dawley): 1.67 h
- Cmax ([5]; Sprague Dawley): 655 ng/mL
- Plasma (Rat): percent of compound remaining after 60 minutes [6]: 100%
- EC50 ([7]; 50 μM glutamate, read-out: NMDAR2D: log EC50 (converted)): < 1 nM
- Emax ([7]; 50 μM glutamate, relative to 1 mM glycine): < 100%
- Plasma (Human): percent of compound remaining after 60 minutes [8]: 95%
- Microsomal (Human): percent of compound remaining after 60 minutes [9]: 100%
- Microsomal (Rat): percent of compound remaining after 60 minutes [10]: 100%
- EC50 ([11]; [3H]MK-801 binding, read-out: NMDAR2A: log EC50 (converted)): < 1 nM
- NMDAR2A: % maximal [3H]MK-801 binding relative to 1 mM glycine [11]: + (<100%=+)
- AUC(0-t) ([13]; Sprague Dawley, iv): 3020 ng·h/mL
- clearance ([13]; Sprague Dawley, iv): 10.9 mL/min/kg
- half-life ([13]; Sprague Dawley, iv): 3.68 h
- C0 ([13]; Sprague Dawley, iv): 3870 ng/mL
- Vd ([13]; Sprague Dawley, iv): 1.1 L/kg
